Assay results: US9499493B2, “2,4-pyrimidinediamine compounds and their uses” (Rigel Pharmaceuticals, Inc., priority 2002, dated 2016)

What was measured:
[1] = test system: cultured human mast cells (CHMC); assay: CHMC low cell density IgE activation: tryptase assay; type: cell-based; details: anti-IgE
Method in brief: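 Read-out: tryptase released into supernatant, measured by substrate turnover over 30 min at RT. Low-density CHMC (1000-1500 cells/well, per donor degranulation activity) in MT buffer, 1 hr at 37° C, then anti-IgE challenge 30 min at 37° C.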

[2] = test system: cultured human mast cells (CHMC); assay: CHMC low cell density ionomycin activation: tryptase assay; type: cell-based

SMILES	IC50 [1]	IC50 [2]
CC(C)(C)c1cccc(Nc2nc(Nc3ccc4oc(CO)cc4c3)ncc2F)c1 [R940287, N4-(3-tert-Butylphenyl)-5-fluoro-N2-[(2-hydroxymethylene)benzofur-5-yl]-2,4-pyrimidinediamine]	288 nM	7680 nM
CC(C)(CO)c1ccc(Nc2nc(Nc3ccc4c(c3)OCCO4)ncc2F)cc1 [R935173, N2-(3,4-Ethylenedioxyphenyl)-5-fluoro-N4-[4-(2-hydroxy-1,1-dimethylethyl)phenyl]-2,4-pyrimidinediamine]	454 nM	> 10000 nM
COC(=O)COc1ccc(Nc2ncc(F)c(Nc3ccc4c(cnn4C)c3)n2)cc1 [R935209, 5-Fluoro-N2-[4-(methoxycarbonylmethyleneoxy)phenyl]-N4-(1-methyl-indazoline-5-yl)-2,4-pyrimidinediamine]	526 nM	1040 nM
Cc1noc(COc2ccc(Nc3ncc(F)c(Nc4ccc(OC(C)C)cc4)n3)cc2)n1 [R935142, 5-Fluoro-N4-(4-isopropoxyphenyl)-N2-[4-(3-methyl-1,2,4-oxadiazol-5-yl)methyleneoxyphenyl]-2,4-pyrimidinediamine]	873 nM	> 10000 nM
Fc1cnc(Nc2ccc(OCCN3CCOCC3)cc2)nc1Nc1ccc2c(c1)OCCO2 [R926709, N4-(3,4-Ethylenedioxyphenyl)-5-fluoro-N2-[4-[2-(N-morpholino)ethyleneoxy]phenyl]-2,4-pyrimidinediamine]	858 nM	> 10000 nM
CNC(=O)COc1cccc(Nc2ncc(F)c(Nc3cccc(CN)c3)n2)c1 [R940309, N4-(3-Aminomethylenephenyl)-5-fluoro-N2-[3-(methylaminocarbonylmethyleneoxy)phenyl]-2,4-pyrimidinediamine]	1130 nM	> 10000 nM
CNC(=O)COc1cccc(Nc2ncc(F)c(Nc3ccc4c(c3)OCC(=O)N4)n2)c1 [R908700, N4-(1,4-Benzoxazine-3-on-7-yl)-5-fluoro-N2-((N-methylacetamido-2)-3-phenoxy)-2,4-pyrimidinediamine]	1270 nM	> 10000 nM
CCOC(=O)COc1cccc(Nc2ncc(F)c(Nc3ccc(O)c(C(=O)O)c3)n2)c1 [R950290, N4-(3-Carboxy-4-hydroxyphenyl)-5-fluoro-N2-[3-ethoxycarbonylmethyleneoxyphenyl]-2,4-pyrimidinediamine]	> 10000 nM	> 10000 nM
COC(=O)COc1ccc(Nc2ncc(F)c(Nc3ccc(OCC#N)cc3)n2)cc1 [R945053, N4-(4-Cyanomethyleneoxyphenyl)5-fluoro-N2-(4-methoxycarbonylmethyleneoxyphenyl)-2,4-pyrimidinediamine]	118 nM	1480 nM
COc1c(C)cc(Nc2nc(Nc3cccc(OCC(=O)N4CCNCC4)c3)ncc2F)cc1C [R945156, N4-(3,5-Dimethyl-4-methoxyphenyl)-5-fluoro-N2-[3-(N-piperazino)carbonylmethyleneoxyphenyl]-2,4-pyrimidinediamine]	787 nM	> 10000 nM
OCC(O)COc1ccc(Nc2ncc(F)c(Nc3ccc4c(c3)OCCO4)n2)cc1 (stereo not shown) [R935179, N2-[4-(2,3-Dihydroxypropoxy)phenyl]-N4-(3,4-ethylenedioxypheny)-5-fluoro-2,4-pyrimidinediamine]	557 nM	> 10000 nM
CCOC(=O)CCn1ncc2cc(Nc3ncc(F)c(Nc4ccc(Cl)cc4)n3)ccc21 [R935353, N4-(4-Chlorophenyl)-N2-[1-(2-ethoxycarbonylethyl)indazoline-5-yl]-5-fluoro-2,4-pyrimidinediamine]	> 10000 nM	> 10000 nM
Fc1cnc(Nc2ccc3c(c2)CCO3)nc1Nc1ccc2c(c1)CCO2 [R909237, N2,N4-Bis(dihydrobenzofuran-5-yl)-5-fluoro-2,4-pyrimidinediaminediamine]	> 10000 nM	> 10000 nM
COC(=O)COc1cc(O)cc(Nc2ncc(F)c(Nc3cccc(O)c3)n2)c1 [R926927, 5-Fluoro-N2-[3-hydroxy-5-(methoxycarbonylmethyleneoxy)phenyl]-N4-(3-hydroxyphenyl)-2,4-pyrimidinediamine]	348 nM	> 10000 nM
